The test system of assay [1] is pyruvate kinase. As to the kind of experiment: ATP inhibition of pyruvate kinase in cell homogenates (compound optical assay, NADH at 340 mµ). The assay is classed as biochemical. An excerpt: (§1) In more detail, the theoretical basis of this new method is as follows. -The step-wise degradation of glucose to pyruvic acid, according to the well-known Embden-Myerhof pathway, includes the reaction: [drawing 3] wherein ADP and ATP are, respectively, adenosine diphosphate and adenosine triphosphate. In healthy cells this reaction is suppressed by ATP inhibition of the enzyme pyruvate kinase. I have discovered, as previously noted, that in cancerous cells the reaction proceeds in greater or less degree, correlative to the degree of malignancy, in proportion to the extent to which ATP fails to inhibit pyruvate kinase activity. A preferred assay, therefore, involves assessment of the progress of the foregoing reaction in the presence of various levels of ATP calculated to reveal the extent, if any, by which sample-derived pyruvate kinase activity is inhibited by ATP. The extent of such inhibition can be characterised on a percentage scale relative to the foregoing reaction, taking 0% as no inhibition, 100% as total inhibition, and "maximum percent inhibition of pyruvate kinase activity" as that point on the scale beyond which addition of further ATP essentially fails to affect further the progress of the reaction.
(§2) An especially preferred method of following the reaction spectrophotometrically involves compound optical assay, in which the influence of the reaction under study on a secondary reaction with an observable end product is followed. See Felu, FEBS Letters 50, 334 (1975) and Bucher, T. et al., in : Methods in Enzymology, Vol. I (S.P. Colowick and N.O. Kaplan, eds.) Academic Press, N.Y. p. 435. Thus, in the compound reaction: [drawing 4] pyruvate kinase activity can be monitored by observing the rate of disappearance of the band (at 340 m µ) of the hydrogen donor NADH (nicotinamide adenine dinucleotide, reduced form). Successive repetitions of the assay with differing amounts of added ATP establish the point beyond which ATP addition fails to influence the rate of disappearance of the hydrogen donor.
Samples for assay may be obtained as whole tissue (e.g., of volume 1-10 mm^3) in the case of suspected tumours, by intraoperatorybiopsy or needle biopsy. In the case of suspected blood malignancies, the collection of white blood cells by differential centrifugation is sufficient. Samples are preserved on ice pending the preparation of homogenates suitable for assay. Homogenisation frees cell-contained pyruvate kinase for assay and involves cell disruption by conventional techniques which avoid, to a useful degree, the destruction of nuclei, mitochondria and other cell particulates. Typically, the sample may be placed in a hand homogeniser which is supplied with the assay kit, in buffered isotonic solution, and homogenised with several strokes of a pestle. From, e.g., 0.1 to 1 ml of buffered solution, depending on the size of the sample, is preferably employed. As one of many appropriate buffers may be mentioned a solution comprising 50 mM Tris-HC1, pH 7.0, 0.1 mM EDTA and 0.5 mM dithioerythritol. In the preferred embodiment of the invention the homogenate is next centrifuged, for example at about 5,000-10,000 rpm in a conical centrifuge tube for 10 minutes, and the supernatant is dialysed against water (e.g., for 2 hours at about 2-4°C.). The contents of the dialysis bag are then transferred to a tube immersed in ice. In the case of large samples, the centrifugation and dialysis steps may be omitted, as will be appreciated by the art-skilled. Preferably, however, a dialysis bag is supplied with the kit. As used herein, the term "homogenate" refers to a free enzyme-containing product of homogenisation, whether or not accompanied by other cellular debris. […]

Assay [2] concerns pyruvate kinase. The description is as above. The assay is classed as biochemical, Mouse.
From the text: as §1, §2
Samples for assay may be obtained as whole tissue (e.g., of volume 1-10 mm^3) in the case of suspected tumours, by intraoperatorybiopsy or needle biopsy. In the case of suspected blood malignancies, the collection of white blood cells by differential centrifugation is sufficient. Samples are preserved on ice pending the preparation of homogenates suitable for assay. Homogenisation frees cell-contained pyruvate kinase for assay and involves cell disruption by conventional techniques which avoid, to a useful degree, the destruction of nuclei, mitochondria and other cell particulates. Typically, the sample may be placed in a hand homogeniser which is supplied with the assay kit, in buffered isotonic solution, and homogenised with several strokes of a pestle. […]

As to `Nc1ncnc2c1ncn2[C@@H]1O[C@H](COP(=O)(O)OP(=O)(O)OP(=O)(O)O)[C@@H](O)[C@H]1O` [ATP, adenosine triphosphate], the “MAXIMUM % INHIBITION OF PYRUVATE KINASE BY ATP” value was determined as 32% in the assay with pyruvate kinase [1] (Acute lympho-blastic leukaemia, Human, Moderately malign); 40% in the assay with pyruvate kinase [1] (Cerebral ependonoma, Human, Benign); 15% in the assay with pyruvate kinase [1] (Glioma, Human, Malign); 17% with pyruvate kinase [1] (Mammary carcinoma, Human, Malign); 49% with pyruvate kinase [1] (Mammary fibro-adenoma, Rat, Very benign); 4% in the assay with pyruvate kinase [1] (Multiform glioma, Human, Very malign). The “MAXIMUM % INHIBITION OF PYRUVATE KINASE BY ATP” value with pyruvate kinase [1] (Normal liver, Human, No cell growth) is 99%; in the assay with pyruvate kinase [1] (Normal tissue, Rat, No cell growth), 99%; in the assay with pyruvate kinase [1] (Ovarian carcinoma, Human, Malign), 10%; with pyruvate kinase [1] (Walter Carcino-sarcoma, Rat, Malign) it was 22%; with pyruvate kinase [2] (Erhlich ascites (Paris strain), Mouse, Very high growth rate), 4%; with pyruvate kinase [2] (Erhlich ascites tumour (Rome Strain), Mouse, Slow growth rate), 39%. The “MAXIMUM % INHIBITION OF PYRUVATE KINASE BY ATP” value in the assay with pyruvate kinase [2] (Leukaemia 1210, Mouse, Very malign) stood at 16%; with pyruvate kinase [2] (Leukaemia P-P388, Mouse, Malign), 25%.

Source of the values: patent EP0002933A1, “Method for assessing cancerous malignancy or benignity and diagnostic pack for use therein” (Gosalvez, Mario Gosalvez, priority 1977, dated 1979).
